Columns and labels:
[1] = Decomposition check of non-aqueous 5-ALA solutions by capillary electrophoresis; assay type: physicochemical; settings: 10% solutions (weight/vol) in 1,2-propylene glycol and glycerol, after complete dissolution
Description: 10% solutions (weight/vol) of […] in 1,2-propylene glycol and glycerol were prepared.

[2] = UV-VIS measurement of 5-ALA solution after dilution with water; assay type: physicochemical; settings: 10% water-free solution, water added 1:1, subsequently diluted 1:100 with water
Description: This was detected by measuring the decrease of absorbance at 447 nm (FIG. 2).

NCC(=O)CCC(=O)O [5-ALA, 5-aminolevulinic acid]
degradation products (DHPY, PY, porphobilinogen) in capillary electrophoresis [1]: neither DHPY, PY nor porphobilinogen were detected | by-products in UV spectrum [2]: without the presence of by-products
